Test results published in patent US20170314056A1, “METHOD OF USING NEAR INFRARED FLUORESCENT DYES FOR IMAGING AND TARGETING CANCERS” (priority 2010, published 2017).
Entries after “also recorded” stand apart in the source; their conditions may differ. Read-outs that look alike come from different tables or passages of the source.

Legend:
human cancer cells = assay: Uptake of NIR dyes by cultured human cancer cell lines (confocal NIR imaging); format: cell-based; conditions: for uptake of dye by human cancer cell lines in culture: panel of prostate, breast, cervical, lung, liver, pancreatic, renal, bladder and leukemia lines, confocal microscope
Protocol: (§1) Cells (1×10^4/well) were seeded on vitronectin-coated four-well chamber slides (Nalgen Nunc, Naperville, Ill.) and incubated with T-medium containing 5% FBS for 24 h. After the cells had attached to the chamber slides, the cells were washed with PBS (Phosphate Buffered Saline) and exposed to the cyanine dye at a concentration of 20 μM in T-medium. The slides were incubated at 37° C. for 30 min, washed twice with PBS to remove excess dyes, and cells were fixed with 10% formaldehyde at 4° C. The slides were then washed twice with PBS and covered with glass coverslips with an aqueous mounting medium (Sigma-Aldrich, St. Louis, Mo.). Images were recorded by confocal laser microscopy (Zeiss LSM 510 META, Germany) using a 633 nm excitation laser and 670-810 nm long pass filter, or a fluorescence microscope (Olympus 1×71; Olympus, Melville, N.Y.) equipped with a 75 W Xenon lamp and an Indo-Cyanine Green filter cube (excitation 750-800 nm; emission 820-860 nm) (Chroma, Rockingham, Vt.).
(§2) Cells (1×10^4/well) were seeded on vitronectin-coated four-well chamber slides (Nalgen Nunc, Naperville, Ill.) and incubated with T-medium containing 5% FBS for 24 h. After the cells had attached to the chamber slides, the cells were washed with PBS (Phosphate Buffered Saline) and exposed to the cyanine dye at a concentration of 20 μM in medium. The slides were incubated at 37° C. for 30 min, washed twice with PBS to remove excess dyes, and fixed with 10% formaldehyde at 4° C. The slides were then washed twice with PBS and covered with glass coverslips with aqueous mounting medium (Sigma-Aldrich, St. Louis, Mo.). Images were recorded by confocal laser microscopy (Zeiss LSM 510 META, Germany) equipped with 633 nm excitation laser and 670-810 nm long pass filter.

human tumor xenografts = assay: NIR imaging of human tumor xenografts in live mice; conditions: for tumor imaging of subcutaneous xenografts: Kodak multimodal-imaging system; for dye uptake and signal in human xenograft implants at various sites: subcutaneous, orthotopic or intraosseous tumors, i.p. or i.v. dye; for duration of dye uptake and retention in tumors after dye administration: tumors in live mice
Text: […] After variable time of the dye injection, the mice were anesthetized and imaged by using the Kodak animal in vivo imaging system, which can obtain both the NIR signal and the X-ray picture and these images were merged. […] IR-783 uptake into metastatic human prostate tumors was studied in ARCaP model.
Uptake and accumulation of cyanine dyes in tumors in live mice Human cancer cells were implanted (1×10^6) either subcutaneously, orthotopically, or intraosseously into 4 to 6 week old athymic nude mice (National Cancer Institute, Frederick, Md.) according to our previously published procedures (26, 27). All animal studies were conducted under the Emory University Animal Care and Use Committee guidelines. […] Whole body optical imaging was taken at 24 h using a Kodak Imaging Station 4000 MM (New Haven, Conn.) equipped with fluorescent filter sets (excitation/emission, 800/850 nm). The field of view (FOV) was 120 mm in diameter. The frequency rate for NIR excitation light was 2 mW/cm^2. The camera settings included maximal gain, 2×2 binning, 1024×1024 pixel resolution, and an exposure time of 5 sec. In some instances, live mice were also imaged by an Olympus OV100 Whole Mouse Imaging System (excitation 762 nm; emission 800 nm) (Olympus Corp., Tokyo, Japan), containing a MT-20 light source (Olympus Biosystems, Planegg, Germany) and DP70 CCD camera (Olympus). Prior to imaging, mice were anesthetized with ketamine (75 mg/kg). During imaging, mice were maintained in an anesthetized state.
Human renal cancer cells (ACHN and SN12C) were implanted (1×10^6) subcutaneously and intraosseously into 4 to 6 week old athymic nude mice, respectively. And, we also implanted Caki-1 cells into the renal capsule of athymic nude mice to establish subrenal capsule xenografts of renal cancer as previously described.^70 When tumor sizes reached between 1-6 mm in diameter, as assessed by X-ray or by palpation, mice were […] Whole body optical imaging was taken at 24 h using a Kodak Imaging Station Imaging System 4000 MM (New Haven, Conn.) equipped with fluorescent filter sets (excitation/emission, 800/850 nm). The field of view (FOV) was 120 mm in diameter. The frequency rate for NIR excitation light was 2 mW/cm^2. The camera settings included maximal gain, 2×2 binning, 1024×1024 pixel resolution, and an exposure time of 5 sec. After whole body NIR imaging, the dissected organs and tumors were subjected to ex vivo imaging. Prior to imaging, mice were anesthetized with ketamine (75 mg/kg). During imaging, mice were maintained in an anesthetized state.

[1] = for body weight: daily intraperitoneal injection, Balb/c mice
Protocol: In control mice, the same volume of PBS was injected. The body weight and lethality of these mice were closely followed for 28 days.

[2] = Dye distribution and clearance in normal mouse tissues; format: in vivo
Text: One mouse was sacrificed at 96 hrs after IR-780 injection through tail vein, and isolated tissues and organs excised from mice were cut into frozen slides and were imaged under confocal microscope.
To assess tissue distribution of these dyes, athymic mice without tumor implantation were sacrificed at 0, 6 and 80 hrs (N=3 each) after i.v. injection of IR-783 dye at a dose of 10 nmol/20 g. Dissected organs were subjected to NIR imaging by a Kodak Imaging Station 4000 MM. In another study the mice bearing orthotopic ARCaPM tumors were subjected to NIR imaging at 0.5, 24, 48, 72 and 96 hrs after IR-783 i.v. administration at a dose of 10 nmol/20 g. In some cases, we also assessed the biodistribution of NIR dye by a spectral method in tissues harvested from athymic mice bearing subcutaneous ARCaPM tumors (N=6). Tumors and normal host organs were homogenized in PBS, centrifuged at 15,000×g for 15 minutes to recover the supernatant fraction after the mice were injected i.p. with IR-783 at a dose of 10 nmol/20 g. The presence of the organic dyes (parental IR-783 and its metabolites) in tissues was estimated spectrophotometrically at an emission wavelength of 820 nm by a PTI Near Infrared Fluorometer QuantaMaster™ 50 (PTI, Birmingham, N.J.) equipped with a 75-watt xenon arc lamp under 500 to 1700 nm InGaAs detector using known concentrations of IR-783 as the standard (28). In other cases, tumor tissues harvested from mice were stored in formalin from 1 week to 3 months, and fluorescence images were obtained and compared.

normal human cells = assay: Uptake of NIR dyes by cultured normal human cells; format: cell-based; conditions: HS-27A/BMC, NPE, NPF, HUVEC-CS, HEK293; 20 μM dye, 30 min
Protocol: as §1, §2

[3] = mice bearing subcutaneous ACHN tumors

2-[2-[2-Chloro-3-[2-[1,3-dihydro-3,3-dimethyl-1-(4-sulfobutyl)-2H-indol-2-ylidene]-ethylidene]-1-cyclohexen-1-yl]-ethenyl]-3,3-dimethyl-1-(4-sulfobutyl)-3H-indolium [IR-783]
uptake of dye by human bladder cancer cell lines (human cancer cells): strong uptake
uptake of dye by human pancreatic cancer cell lines (human cancer cells): strong uptake
dye uptake into cancer cells at 0° C. (human cancer cells; data not shown): no dye uptake and none
dye uptake into cancer cells at 37° C. (human cancer cells; 37° C., data not shown): high
uptake of dye by human renal cancer cells (human cancer cells; SN12C, ACHN, Caki-1, 20 μM dye, 30 min): significant uptake; also recorded: actively taking up
uptake of dye by human cancer cell lines in culture (human cancer cells; 20 μM dye, 30 min): preferentially taken up and retained by cancer but not normal cells; also recorded: a wide range of cancer cells but not normal cells were taking up these dyes; also recorded: retained in cancerous cells of human origin; also recorded: significant uptake
tumor imaging of subcutaneous xenografts (human tumor xenografts; 5 nmol dye through tail vein): clear tumor images can be detected
time after dye at which optimal images of tumors and metastases are obtained (human tumor xenografts; metastatic prostate tumors (ARCaP orthotopic) in mice): 24 to 48 h
signal in tumor specimens, ex vivo analysis (human tumor xenografts; [3]): higher signals in tumor specimens
signals in other normal organs, ex vivo analysis (human tumor xenografts; [3]): very low signals
dye uptake by orthotopic ARCaPM tumors (human tumor xenografts; orthotopic ARCaPM (ARCaP) tumors in mice): strong uptake; also recorded: active uptake; also recorded: dye uptake and retention seen in an ARCaPM orthotopic tumor
tumor signal in whole-body NIR imaging (human tumor xenografts; subcutaneous renal tumors (ACHN), Kodak System): signals could be clearly visualized in the tumors
dye uptake and signal in human xenograft implants at various sites (human tumor xenografts): found in a broad spectrum of human xenograft implants; also recorded: intense signals were clearly associated with the tumors; also recorded: both tumors were detected
signal at anatomical sites of implanted tumors (human tumor xenografts; subrenal capsule (Caki-1) and intraosseous (SN12C) renal tumor xenografts): strong signals
duration of dye uptake and retention in tumors after dye administration (human tumor xenografts): up to 15 days
size of tumors that can be imaged (human tumor xenografts; tumors in mice): approximately 1 mm^3
tumor weight that can be imaged (human tumor xenografts; tumors in mice): approximately 1 mg
body weight ([1]; 0 day, 1X imaging dose): 20.29 g
body weight ([1]; 0 day, 10X imaging dose): 20.57 g
body weight ([1]; 0 day, 100X imaging dose): 19.85 g
lethality in treated mice ([1]; 100× imaging dose, 28 days): no lethality
body weight ([1]; 1 day, 1X imaging dose): 20.20 g
body weight ([1]; 1 day, 10X imaging dose): 20.61 g
body weight ([1]; 1 day, 100X imaging dose): 19.74 g
body weight ([1]; 2 day, 1X imaging dose): 20.23 g
body weight ([1]; 2 day, 10X imaging dose): 20.59 g
body weight ([1]; 2 day, 100X imaging dose): 20.01 g
body weight ([1]; 3 day, 1X imaging dose): 20.32 g
body weight ([1]; 3 day, 10X imaging dose): 20.98 g
body weight ([1]; 3 day, 100X imaging dose): 20.39 g
body weight ([1]; 4 day, 1X imaging dose): 20.34 g
body weight ([1]; 4 day, 10X imaging dose): 21.02 g
body weight ([1]; 4 day, 100X imaging dose): 20.43 g
body weight ([1]; 5 day, 1X imaging dose): 21.00 g
body weight ([1]; 5 day, 10X imaging dose): 21.34 g
body weight ([1]; 5 day, 100X imaging dose): 21.01 g
body weight ([1]; 6 day, 1X imaging dose): 21.87 g
body weight ([1]; 6 day, 10X imaging dose): 21.76 g
body weight ([1]; 6 day, 100X imaging dose): 21.23 g
body weight ([1]; 7 day, 1X imaging dose): 22.32 g
body weight ([1]; 7 day, 10X imaging dose): 22.54 g
body weight ([1]; 7 day, 100X imaging dose): 22.00 g
body weight ([1]; 14 day, 1X imaging dose): 23.91 g
body weight ([1]; 14 day, 10X imaging dose): 24.01 g
body weight ([1]; 14 day, 100X imaging dose): 23.76 g
body weight ([1]; 28 day, 1X imaging dose): 24.86 g
body weight ([1]; 28 day, 10X imaging dose): 24.87 g
body weight ([1]; 28 day, 100X imaging dose): 24.61 g
organs accumulating dye ([2]; 6 hrs after i.v. 10 nmol/20 g, normal mice): accumulate in mouse liver, kidney, lung and heart
dye in vital organs at 80 hrs ([2]; 80 hrs after i.v. 10 nmol/20 g, normal mice): completely cleared
time by which dye was cleared from all mouse vital organs ([2]; i.v. 10 nmol/20 g, normal mice): ≤ 80 h
time period within which dye was cleared from normal organs ([2]; liver, kidney, testis and seminal vesicles, live animals): ≤ 96 h
uptake of dye by normal human cells in culture (normal human cells): unable to be taken up by normal cells; also recorded: not to accumulate; also recorded: not taken up; also recorded: low uptake; also recorded: very low uptake

CCCN1C(=CC=C2CCCC(C=CC3=[N+](CCC)c4ccccc4C3(C)C)=C2Cl)C(C)(C)c2ccccc21.[I-] [IR-780, 2-[2-[2-Chloro-3-[(1,3-dihydro-3,3-dimethyl-1-propyl-2H-indol-2-ylidene)ethylidene]-1-cyclohexen-1-yl]ethenyl]-3,3-dimethyl-1-propylindolium iodide]
dye uptake into cancer cells at 0° C. (human cancer cells; data not shown): no dye uptake
uptake of dye by human cancer cell lines in culture (human cancer cells; 20 μM dye, 30 min): preferentially taken up and retained by cancer but not normal cells; also recorded: a wide range of cancer cells but not normal cells were taking up these dyes; also recorded: significant uptake
tumor imaging of intratibial ARCaPM tumors (human tumor xenografts; 5 nmol dye through tail vein): clear tumor images can be detected
tumor imaging of subcutaneous xenografts (human tumor xenografts; 5 nmol dye through tail vein): clear tumor images can be detected in all subcutaneous tumors
dye uptake and signal in human xenograft implants at various sites (human tumor xenografts): found in a broad spectrum of human xenograft implants
duration of dye uptake and retention in tumors after dye administration (human tumor xenografts): ≤ 15 days
body weight ([1]; 0 day, 1X imaging dose): 19.00 g
body weight ([1]; 0 day, 10X imaging dose): 20.71 g
body weight ([1]; 0 day, 100X imaging dose): 20.14 g
day after injection at which all mice were killed ([1]; 100× excess of the imaging dose): 2 days
body weight ([1]; 1 day, 1X imaging dose): 19.02 g
body weight ([1]; 1 day, 10X imaging dose): 20.69 g
body weight ([1]; 1 day, 100X imaging dose): 0 g
body weight ([1]; 2 day, 1X imaging dose): 19.71 g
body weight ([1]; 2 day, 10X imaging dose): 20.70 g
body weight ([1]; 2 day, 100X imaging dose): 0 g
body weight ([1]; 3 day, 1X imaging dose): 20.01 g
body weight ([1]; 3 day, 10X imaging dose): 21.03 g
body weight ([1]; 3 day, 100X imaging dose): 0 g
body weight ([1]; 4 day, 1X imaging dose): 20.32 g
body weight ([1]; 4 day, 10X imaging dose): 21.24 g
body weight ([1]; 4 day, 100X imaging dose): 0 g
body weight ([1]; 5 day, 1X imaging dose): 20.56 g
body weight ([1]; 5 day, 10X imaging dose): 21.89 g
body weight ([1]; 5 day, 100X imaging dose): 0 g
body weight ([1]; 6 day, 1X imaging dose): 20.97 g
body weight ([1]; 6 day, 10X imaging dose): 22.00 g
body weight ([1]; 6 day, 100X imaging dose): 0 g
body weight ([1]; 7 day, 1X imaging dose): 21.81 g
body weight ([1]; 7 day, 10X imaging dose): 22.56 g
body weight ([1]; 7 day, 100X imaging dose): 0 g
body weight ([1]; 14 day, 1X imaging dose): 23.56 g
body weight ([1]; 14 day, 10X imaging dose): 24.00 g
body weight ([1]; 14 day, 100X imaging dose): 0 g
body weight ([1]; 28 day, 1X imaging dose): 24.44 g
body weight ([1]; 28 day, 10X imaging dose): 24.56 g
body weight ([1]; 28 day, 100X imaging dose): 0 g
dye uptake in normal mouse tissues ([2]; 96 hrs after injection through tail vein, frozen slides, confocal): all mouse tissues failed to uptake this organic dye
uptake of dye by normal human cells in culture (normal human cells): unable to be taken up by normal cells; also recorded: very low uptake
